Data as given in patent publication US7179825B2, “Retinoic acid mimetic anilides” (Janssen Pharmaceutica N.V., priority 1997, dated 2007).

What was measured:
[1] = test system: Ovariectomized rats; test: Vaginal keratinization test on ovariectomized rats (Example C.2); type: in vivo; conditions: estradiol undecylate induced keratinization, per os once daily on days 1-3, active dose = 50% of rats show complete suppression
Procedure, shortened: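 Ovariectomized rats given s.c. estradiol undecylate (100 μg per 100 g body weight in sesame oil), then oral compound once daily on days 1-3 (vehicle PEG 200). Vaginas assessed histologically one day after last dose; lowest active dose (mg/kg) is the dose giving complete keratinization suppression in 50% of rats.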

[2] = test system: metabolism of retinoic acid in human breast cancer cells; test: Inhibition of retinoic acid (RA) metabolism (Example C.1); type: cell-based; conditions: MCF-7 human breast cancer cells, 3H-RA as substrate, concentration needed to reduce the amount of metabolites to 50% of the control
Procedure, shortened: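 MCF-7 cells, pre-stimulated with RA the day before, incubated with ³H-RA substrate and test compound in 1% DMSO. Polar ³H-metabolites separated from unmetabolized RA and counted by scintillation. IC50 is the concentration cutting metabolite formation to 50% of control, with blank run alongside.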

IC50 [2] | IC50 ([2]; MCF7) | Structure (SMILES) | LAD (lowest active dose) [1] | minimal effective dose ([1]; Rattus norvegicus, po, read-out: LAD (lowest active dose))
6.25 nM | – | CC(C)CC(c1ccc(NC(=O)Cc2ccc(Cl)cc2)cc1)n1ccnc1 (racemic) [Compound 359] | >10.00 mg/kg | –
4.15 nM | – | C/C(=C\c1ccnc2ccccc12)C(=O)Nc1ccc(C(C(C)C)n2ccnc2)cc1 (racemic) [Compound 592] | >10.00 mg/kg | –
4.83 nM | – | CC(C)C(c1ccc(NC(=O)C2COc3ccccc3O2)cc1)n1ccnc1 (centres unmarked) [Compound 175] | 10.00 mg/kg | –
0.463 nM | – | CCC(CC)C(c1ccc(NC(=O)Cc2ccc(OC)c(OC)c2)cc1)n1cncn1 (racemic) [Compound 73] | >2.50 mg/kg | –
3.99 nM | – | COc1ccc(CC(=O)Nc2ccc(C(C(C)N3CCN(C)CC3)n3ccnc3)cc2)cc1OC.O (single isomer, unassigned) [Compound 412] | >2.50 mg/kg | –
98.4 nM | – | CC(C)C(c1ccc(NC(=O)C(C)(C)O)cc1)n1ccnc1 (racemic) [Compound 236] | 5.00 mg/kg | –
0.131 nM | – | CCC(CC)C(c1ccc(NC(=O)Cc2ccccc2OC)cc1)n1ccnc1 (racemic) [Compound 89] | 2.50 mg/kg | –
75.8 nM | – | CC(O)C(=O)Nc1ccc(C(C(C)C)n2ccnc2)cc1 (centres unmarked) [Compound 249] | 5.00 mg/kg | –
> 100 nM | – | CC(C)C(c1ccc(NC(=O)c2ccc(-c3ccccc3)cc2)cc1)n1ccnc1 (racemic) [Compound 238] | 5.00 mg/kg | –
3.74 nM | – | CC(=Cc1cccc(F)c1)C(=O)Nc1ccc(C(C(C)C)n2ccnc2)cc1 (racemic) [Compound 586] | >10.00 mg/kg | –
7.48 nM | – | CC(C)C(c1ccc(NC(=O)CNC(=O)OCc2ccccc2)cc1)n1ccnc1 (racemic) [Compound 262] | 20.00 mg/kg | –
22.3 nM | – | CC(C)C(c1ccc(NC(=O)c2cccnc2)cc1)n1ccnc1 (racemic) [Compound 196] | >10.00 mg/kg | –
1.64 nM | – | CC(C)C(c1ccc(NC(=O)c2nccc3ccccc23)cc1)n1ccnc1 (centres unmarked) [Compound 229] | >10.00 mg/kg | –
3.65 nM | – | Cc1cc(CC(=O)Nc2ccc(C(C(C)N(C)C)n3ccnc3)cc2)cc(C)c1C (single isomer, unassigned) [Compound 309] | >2.50 mg/kg | –
0.27 nM | – | CCC(CC)C(c1ccc(NC(=O)Cc2ccc3c(c2)OCO3)cc1)n1cncn1 (racemic) [Compound 5] | >2.50 mg/kg | –
> 100 nM | – | CC(C)C(c1ccc(NC(=O)Nc2cccc(F)c2)cc1)(C(C)C)n1ccnc1 [Compound 746] | >5.00 mg/kg | –
2.03 nM | – | CC(C)C(c1ccc(NC(=O)Nc2cccc(Cl)c2)cc1)n1ccnc1 (racemic) [Compound 738] | 10.00 mg/kg | –
5.91 nM | – | COc1cccc(CC(=O)Nc2ccc(C(C(C)C)n3ccnc3)cc2)c1 (racemic) [Compound 665] | 2.50 mg/kg | –
6.36 nM | – | C/C(=C\c1ccc2nn(C)nc2c1)C(=O)Nc1ccc(C(C(C)C)n2ccnc2)cc1 (racemic) [Compound 599] | >20.00 mg/kg | –
73 nM | – | CC(C)C(c1ccc(NC(=O)c2ccc[nH]c2=O)cc1)n1ccnc1 (racemic) [Compound 228] | >10.00 mg/kg | –
2.59 nM | – | CC(C)C(c1ccc(NC(=O)c2ccc3c(c2)C(C)(C)CCC3(C)C)cc1)n1ccnc1 (racemic) [Compound 252] | >10.00 mg/kg | –
1.72 nM | – | CCC(CC)C(c1ccc(NC(=O)Cc2ccc(F)cc2)cc1)n1cncn1 (racemic) [Compound 68] | 5.00 mg/kg | –
17.7 nM | – | CC(=Cc1ccccc1)C(=O)Nc1ccc(C(C(C)C)n2ccnc2)cc1 (single isomer, unassigned) [Compound 459] | 20.00 mg/kg | –
7.75 nM | – | CNC(=O)Nc1ccc(C(C(C)C)n2ccnc2)cc1 (centres unmarked) [Compound 267] | >10.00 mg/kg | –
– | 8.15 nM | CC(Cc1ccccc1)C(=O)Nc1ccc(C(C(C)C)n2ccnc2)cc1 (racemic) [Compound 164, (±)-N-[4-[1-(1H-imidazol-1-yl)-2-methylpropyl]phenyl]-α-methylbenzenepropanamide] | – | 20 mg/kg
> 1000 nM | – | O=C(C=C(c1ccccc1)C1CCCCC1)Nc1ccc(C(c2ccc(Cl)cc2)n2ccnc2)cc1 (mixture of isomers) [Compound 514] | >20.00 mg/kg | –

IC50 [2] | IC50 ([2]; MCF7) | Structure (SMILES) | LAD (lowest active dose) [1] | minimal effective dose ([1]; Rattus norvegicus, po, read-out: LAD (lowest active dose))
13.6 nM | – | CCOc1c(F)c(F)c(/C=C(\C)C(=O)Nc2ccc(C(C(C)C)n3ccnc3)cc2)c(F)c1F (racemic) [Compound 606] | >10.00 mg/kg | –
50.1 nM | – | CC(C)C(c1ccc(NC(=O)/C=C/c2ccccc2)cc1)n1cncn1 (racemic) [Compound 155] | >10.00 mg/kg | –
25.7 nM | – | C/C(=C\c1ccc2nnn(C)c2c1)C(=O)Nc1ccc(C(C(C)C)n2ccnc2)cc1 (racemic) [Compound 602] | >10.00 mg/kg | –
1.84 nM | – | CC(C)C(c1ccc(NC(=O)C2CCCCC2C)cc1)n1ccnc1 (racemic) [Compound 202] | >10.00 mg/kg | –
12 nM | – | CC(C)C(c1ccc(NC(=S)Nc2ccccc2F)cc1)n1ccnc1 (racemic) [Compound 700] | 5.00 mg/kg | –
35.7 nM | – | O=C(Cc1ccccc1)Nc1ccc(C(c2cccc(F)c2)n2cncn2)cc1 (racemic) [Compound 619] | >20.00 mg/kg | –
4.58 nM | – | CC(C)C(c1ccc(NC(=O)C2CC2c2ccccc2)cc1)n1ccnc1.O=C(O)C(=O)O (mixture of isomers) [Compound 204] | >10.00 mg/kg | –
860 nM | – | CCCCC(=CC(=O)Nc1ccc(C(c2ccc(Cl)cc2)n2ccnc2)cc1)c1ccccc1 (racemic) [Compound 513] | >20.00 mg/kg | –
0.367 nM | – | CCN(C)C(C)C(c1ccc(NC(=O)Cc2ccc(OC)c(OC)c2)cc1)n1ccnc1 (single isomer, unassigned) [Compound 416] | >5.00 mg/kg | –
25.4 nM | – | C/C(C(=O)Nc1ccc(C(C(C)C)n2ccnc2)cc1)=C(/c1ccccc1)c1ccco1 (racemic) [Compound 207] | 10.00 mg/kg | –
15.9 nM | – | C/C(=C\c1ccccc1)C(=O)Nc1ccc(C(CC(C)C)n2ccnc2)cc1 (racemic) [Compound 474] | >10.00 mg/kg | –
1.17 nM | – | CC(C)C(c1ccc(NC(=O)Nc2nc3ccccc3n2C)cc1)n1ccnc1 (racemic) [Compound 277] | >5.00 mg/kg | –
4.1 nM | – | CC(C)C(c1ccc(NC(=O)Cc2ccc(Cl)cc2)cc1)n1cncn1 (centres unmarked) [Compound 131] | 5.00 mg/kg | –
3.16 nM | – | CC(C)C(c1ccc(NC(=O)Cc2ccc(O)cc2)cc1)n1ccnc1 (centres unmarked) [Compound 668] | 5.00 mg/kg | –
1.63 nM | – | CCC(CC)C(c1ccc(NC(=O)/C(C)=C/c2ccccc2)cc1)n1ccnc1 (racemic) [Compound 478] | 2.50 mg/kg | –
25 nM | – | CCC(=Cc1ccccc1)C(=O)Nc1ccc(C(C(C)C)n2ccnc2)cc1 (racemic) [Compound 457] | >20.00 mg/kg | –
48.8 nM | – | C/C(=C\C(C)C)C(=O)Nc1ccc(C(C(C)C)n2ccnc2)cc1 (centres unmarked) [Compound 588] | 10.00 mg/kg | –
0.231 nM | – | CCC(CC)C(c1ccc(NC(=O)Cc2cc(C)c(C)c(C)c2)cc1)n1cncn1 (racemic) [Compound 81] | 2.50 mg/kg | –
13 nM | – | CCOc1ccc(NC(=O)Nc2ccc(C(C(C)C)n3ccnc3)cc2)cc1 (racemic) [Compound 707] | 5.00 mg/kg | –
0.104 nM | – | CCOc1ccc(CCC(=O)Nc2ccc(C(C(CC)CC)n3ccnc3)cc2)cc1 (racemic) [Compound 39] | 0.60 mg/kg | –
4.81 nM | – | CC(C)C(c1ccc(NC(=O)Nc2cccc3ccccc23)cc1)n1ccnc1 (racemic) [Compound 272] | >10.00 mg/kg | –
2.41 nM | – | COc1cccc(NC(=O)Nc2ccc(C(C(C)C)n3ccnc3)cc2)c1 (racemic) [Compound 733] | >10.00 mg/kg | –
4.49 nM | – | CC(C)C(c1ccc(NC(=O)Cc2ccc(F)cc2)cc1)n1cncn1 (centres unmarked) [Compound 132] | 5.00 mg/kg | –
> 100 nM | – | CC(C)C(c1ccc(NC(=O)C(C)(c2ccccc2)c2ccccc2)cc1)n1ccnc1 (racemic) [Compound 189] | >10.00 mg/kg | –
0.321 nM | – | CCC(CC)C(c1ccc(NC(=O)Cc2cccc(O)c2)cc1)n1ccnc1.O=C(O)C(=O)O (racemic) [Compound 109] | 2.50 mg/kg | –

Structure (SMILES) | IC50 [2] | IC50 ([2]; MCF7) | LAD (lowest active dose) [1] | minimal effective dose ([1]; Rattus norvegicus, po, read-out: LAD (lowest active dose))
C/C(=C\c1ccccc1)C(=O)Nc1ccc(C(C2CC2)n2ccnc2)cc1 (racemic) [Compound 469] | > 100 nM | – | >10.00 mg/kg | –
